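Method: 48-hour compound exposure of cells in 96-well plates, five concentrations, linear interpolation of endpoints. The concentration for 50% growth inhibition is given as GI50.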 Activity calls are given as the source filed them. Rule as the data show it: active = GI50 up to about 1.1 µM and inactive = higher.
Assays:
Test in all cases: NCI-60 cell line screen, 48 h
[1] = system: XF498
[2] = system: TK-10
[3] = system: HOP-18
[4] = system: DLD-1
[5] = system: M19-MEL
[6] = system: Malme-3M
[7] = system: LXFL 529
[8] = system: SN12C
[9] = system: UACC-62
[10] = system: NCI-H226
[11] = system: RXF 631
[12] = system: HOP-92
[13] = system: HCC 2998
[14] = system: COLO 205
[15] = system: SF-295
[16] = system: ACHN
[17] = system: NCI-H460
[18] = system: HL-60
[19] = system: OVCAR-3
[20] = system: NCI-H23
[21] = system: U-251
[22] = system: NCI-H522
[23] = system: A549
[24] = system: SR
[25] = system: HCT-116
[26] = system: SK-MEL-5
[27] = system: SF-539
[28] = system: M14
[29] = system: A498
[30] = system: RXF 393
[31] = system: SNB-19
[32] = system: KM-20L2
[33] = system: CAKI-1
[34] = system: UO-31
[35] = system: OVCAR-4
[36] = system: SNB-75
[37] = system: CCRF-CEM
[38] = system: K562
[39] = system: HCT-15
[40] = system: SK-OV-3
[41] = system: EKVX
[42] = system: SK-MEL-28
[43] = system: LOX IMVI
[44] = system: OVCAR-8
[45] = system: DMS-114
[46] = system: IGROV-1
[47] = system: SW-620
[48] = system: HOP-62
[49] = system: UACC-257
[50] = system: 786-0
[51] = system: SF-268
[52] = system: KM12
[53] = system: HT-29
[54] = system: SNB-78
[55] = system: OVCAR-5
[56] = system: RPMI-8226
[57] = system: SK-MEL-2
[58] = system: DMS-273
[59] = system: MOLT-4

CCOC(=O)C(/C(=N/NC(=O)OC)C(=O)Nc1ccc(C(C)=O)cc1)c1cnc2ccccc2n1 (stereo not given)
GI50 [1]: > 100 µM (inactive) | GI50 [2]: > 100 µM (inactive) | GI50 [3]: > 100 µM (inactive) | GI50 [4]: > 100 µM (inactive) | GI50 [5]: > 100 µM (inactive) | GI50 [6]: > 100 µM (inactive) | GI50 [7]: > 100 µM (inactive) | GI50 [8]: > 100 µM (inactive) | GI50 [9]: > 100 µM (inactive) | GI50 [10]: > 100 µM (inactive) | GI50 [11]: > 100 µM (inactive) | GI50 [12]: > 100 µM (inactive) | GI50 [13]: > 100 µM (inactive) | GI50 [14]: > 100 µM (inactive) | GI50 [15]: > 100 µM (inactive) | GI50 [16]: > 100 µM (inactive) | GI50 [17]: > 100 µM (inactive) | GI50 [18]: > 100 µM (inactive) | GI50 [19]: > 100 µM (inactive) | GI50 [20]: > 100 µM (inactive) | GI50 [21]: > 100 µM (inactive) | GI50 [22]: > 100 µM (inactive) | GI50 [23]: > 100 µM (inactive) | GI50 [24]: > 100 µM (inactive) | GI50 [25]: > 100 µM (inactive) | GI50 [26]: > 100 µM (inactive) | GI50 [27]: > 100 µM (inactive) | GI50 [28]: > 100 µM (inactive) | GI50 [29]: > 100 µM (inactive) | GI50 [30]: > 100 µM (inactive) | GI50 [31]: > 100 µM (inactive) | GI50 [32]: > 100 µM (inactive) | GI50 [33]: > 100 µM (inactive) | GI50 [34]: > 100 µM (inactive) | GI50 [35]: > 100 µM (inactive) | GI50 [36]: 90.8 µM (inactive) | GI50 [37]: > 100 µM (inactive) | GI50 [38]: > 100 µM (inactive) | GI50 [39]: > 100 µM | GI50 [40]: > 100 µM (inactive) | GI50 [41]: > 100 µM (inactive) | GI50 [42]: > 100 µM (inactive) | GI50 [43]: > 100 µM (inactive) | GI50 [44]: > 100 µM (inactive) | GI50 [45]: > 100 µM (inactive) | GI50 [46]: > 100 µM (inactive) | GI50 [47]: > 100 µM (inactive) | GI50 [48]: > 100 µM (inactive) | GI50 [49]: > 100 µM (inactive) | GI50 [50]: > 100 µM (inactive) | GI50 [51]: > 100 µM (inactive) | GI50 [52]: > 100 µM (inactive) | GI50 [53]: > 100 µM (inactive) | GI50 [54]: > 100 µM (inactive) | GI50 [55]: > 100 µM (inactive)

C=CCCCN1CCCC(C)C1=S (stereo not given)
GI50 [56]: > 100 µM (inactive) | GI50 [1]: > 100 µM (inactive) | GI50 [2]: > 100 µM (inactive) | GI50 [3]: > 100 µM (inactive) | GI50 [4]: > 100 µM (inactive) | GI50 [5]: > 100 µM (inactive) | GI50 [6]: > 100 µM (inactive) | GI50 [9]: > 100 µM (inactive) | GI50 [10]: > 100 µM (inactive) | GI50 [11]: > 100 µM (inactive) | GI50 [57]: > 100 µM (inactive) | GI50 [12]: > 100 µM (inactive) | GI50 [13]: > 100 µM (inactive) | GI50 [14]: > 100 µM (inactive) | GI50 [15]: > 100 µM (inactive) | GI50 [16]: > 100 µM (inactive) | GI50 [17]: > 100 µM (inactive) | GI50 [18]: > 100 µM (inactive) | GI50 [19]: > 100 µM (inactive) | GI50 [20]: > 100 µM (inactive) | GI50 [21]: > 100 µM (inactive) | GI50 [22]: > 100 µM (inactive) | GI50 [23]: > 100 µM (inactive) | GI50 [58]: > 100 µM (inactive) | GI50 [24]: > 100 µM (inactive) | GI50 [25]: > 100 µM (inactive) | GI50 [26]: > 100 µM (inactive) | GI50 [27]: > 100 µM (inactive) | GI50 [28]: > 100 µM (inactive) | GI50 [59]: > 100 µM (inactive) | GI50 [29]: > 100 µM (inactive) | GI50 [30]: > 100 µM (inactive) | GI50 [31]: > 100 µM (inactive) | GI50 [32]: > 100 µM (inactive) | GI50 [34]: > 100 µM (inactive) | GI50 [35]: > 100 µM (inactive) | GI50 [36]: 52 µM (inactive) | GI50 [37]: > 100 µM (inactive) | GI50 [38]: > 100 µM (inactive) | GI50 [39]: > 100 µM | GI50 [40]: > 100 µM (inactive) | GI50 [41]: > 100 µM (inactive) | GI50 [42]: > 100 µM (inactive) | GI50 [43]: > 100 µM (inactive) | GI50 [44]: > 100 µM (inactive) | GI50 [45]: > 100 µM (inactive) | GI50 [46]: > 100 µM (inactive) | GI50 [47]: > 100 µM (inactive) | GI50 [48]: > 100 µM (inactive) | GI50 [49]: > 100 µM (inactive) | GI50 [50]: > 100 µM (inactive) | GI50 [51]: > 100 µM (inactive) | GI50 [52]: > 100 µM (inactive) | GI50 [53]: > 100 µM (inactive) | GI50 [55]: > 100 µM (inactive)

Source: ChEMBL document CHEMBL1201862, “PubChem BioAssay data set” (2004)
